Key:
[1] = system: TF1 (Human erythro leukemia cells); assay: Cell proliferation assay (Trypan Blue dye exclusion), TF1; assay type: cell-based; conditions: tritoqualine 10^-5-10^-8 M, 72 hr, with or without G-CSF 50 ng/mL
Procedure: (§1) U937 (monocytic leukemia cells), and HL-60 (human promyelocytic cells) and TF1 (Human erythro leukemia cells) were obtained from cell bank of Necker. HL-60, U937 and TF1 were maintained. in RPMI-1640 medium supplemented with 10% FCS, 100 U/mL penicillin, and 100 μg/mL streptomycin. These cells were cultured in an incubator containing humidified air with 5% CO2 at […].
(§2) HL60, U937, TF1 cells (5×10^5 cells/mL) in conditioning medium were cultured with various concentrations of tritoqualine (10^−5-10^−8 M) in the presence or absence of G-CSF (50 ng/mL) in 6-well flat-bottomed plates for 72 hr. Cell proliferation assay and viability examination were performed using the Trypan Blue dye exclusion method. All experiments were performed in triplicate.
(§3) The maximum effect is on TF1 cells line. The inhibition is about 85%. The effect on HL60 is only 60% of inhibition. This effect dose is equivalent to the dose of 200 mg to 2000 mg of tritoqualine in human. This effect on leukemia clone is very surprising because tritoqualine is a molecule with low toxicity.

[2] = system: HL-60 (human promyelocytic cells); assay: Cell proliferation assay (Trypan Blue dye exclusion), HL60; assay type: cell-based; conditions: tritoqualine 10^-5-10^-8 M, 72 hr, with or without G-CSF 50 ng/mL
Procedure: as §1, §2, §3

[3] = system: U937 (monocytic leukemia cells); assay: Cell proliferation assay (Trypan Blue dye exclusion), U937; assay type: cell-based; conditions: each leukemic cell line incl. U937, tritoqualine 10^-5-10^-8 M, 72 hr
Procedure: as §1, §2, §3

[4] = biological target: histamine H4 (Homo sapiens, UniProt Q9H3N8); assay: Histamine H4 agonist activity
[5] = system: Bcr-Abl tyrosine kinase; conditions: inhibiting activity of the Bcr-Abl tyrosine kinase and proliferation, versus imatinib; cited from earlier work

histamine H4 activity (in words) [4]	Compound	inhibition of proliferation and viability (maximum effect) [1]	inhibition of proliferation and viability [2] [%]	inhibition of proliferation and viability (in words) [3]	potency relative to imatinib [5]
histamine H4 agonist	CCOc1c(N)c2c(c(OCC)c1OCC)C(C1c3c(cc4c(c3OC)OCO4)CCN1C)OC2=O (centres unmarked) [tritoqualine, 7-Amino-4,5,6-triethoxy-3-(5,6,7,8-tetrahydro-4-methoxy-6-methyl-1,3-dioxolo[4,5-g]isoquinolin-5-yl) phthalide]	about 85%	60	dose-dependently inhibited proliferation and viability	
	Cc1cn(-c2cc(NC(=O)c3ccc(C)c(Nc4nccc(-c5cccnc5)n4)c3)cc(C(F)(F)F)c2)cn1 [Nilotinib]				10-30 fold
